Legend:
[1] = tested on: nigral THir neurons; test: Unbiased stereological counts of THir cells in the substantia nigra after striatal 6-OHDA; format: in vivo, Sprague Dawley rats; conditions: experiment 2, KO alone vs control pellet, 4 weeks post-6-OHDA
Protocol: Rats were anesthetized prior to surgery with Equi-Thesin (0.3 ml/100 g body weight i.p.; chloral hydrate 42.5 mg/ml+sodium pentobarbital 9.72 mg/ml), their heads shaved, and then they were placed in a stereotaxic frame. Their skin was swabbed with Betadyne followed by 70% ETOH. The scalp was then opened to expose the skull. Two 1 mm holes were drilled into the skull and rats were injected in two sites in the striatum with 6-OHDA (MP Biomedicals, Solon, Ohio; 5 μg/μl 6-OHDA in 0.2% ascorbic acid, 0.9% saline solution). The coordinates for these injections were AP −1.6 mm, ML +2.4 mm, DV −4.2 mm and AP −0.2 mm, +ML 2.6 mm, DV −7.0 mm. The needle was zeroed at the skull directly above the injection site in order to target the DV coordinate. For each injection, the needle was lowered slowly to the injection site and 1 minute elapsed before injection commenced, 6-OHDA was injected at 0.5 μl/minute and at the end of the injection the needle was held in place for an additional 2 minutes prior to retraction. The wound area was cleaned with Betadine solution and the scalp was closed with surgical wound clips. This lesion paradigm results in a progressive loss of TH phenotype and frank DA cell death.
Animals were deeply anesthetized (60 mg/kg, pentobarbital, i.p.) and perfused intracardially with warm 0.9% saline containing 1 ml/L 10,000 USP heparin followed by ice-cold 0.9% saline. For immunoshistochemistry brains were removed, post fixed for 24 hours in 4% paraformaldehyde and transferred to 30% sucrose in 0.1M PO4 buffer. For determination of purine levels brains were immediately removed and flash frozen in 3-methyl butane. Brains were stored at −80° C. until analysis.
Brains were frozen on dry ice and sectioned at a 40 μm thickness using a sliding microtome. Every sixth section through the SN was processed for labeling with antisera against TH. Following blocking in 10% normal goat serum, tissue was incubated in primary antisera directed against TH (Chemicon MAB318, mouse anti TH 1:4,000) overnight at room temperature. Following primary incubation, sections were incubated in biotinylated secondary antisera against mouse IgG (Chemicon AP124B, 1:400) followed by the Vector ABC detection kit employing horseradish peroxidase (Vector Laboratories, Burlingame, Calif.). Antibody labeling was visualized by exposure to 0.5 mg/ml 3,3′ diaminobenzidine (DAB) and 0.03% H2O2 in Tris buffer. Sections were mounted on subbed slides, dehydrated to xylene and coverslipped with Cytoseal (Richard-Allan Scientific, Waltham, Mass.).
Unbiased stereological counts of THir cells were performed using a BX52 Olympus microscope (Olympus America Inc.) interfaced with Microbrightfield stereological software and a Microfire CCD camera (Optronics, Goleta, Calif.). Utilizing 2 μm guard zones and a 50 μm×50 μm counting frame a grid size of 112 μm×183 μm was employed to assure that all coefficient of error values were ≦0.10. Using the optical fractionator principle, the regions of interest were individually outlined under a low magnification (1.25×). Using a 60× magnification lens with a 1.4 N/A the section thickness was empirically determined by first bringing the top of the section into focus and then using Microbrightfield software to step through the z-axis in 1 μm increments until the very bottom of the section was in focus. […]

[2] = tested on: striatal 6-OHDA infusion; conditions: peripheral adenosine, Wistar rats; cited from earlier work

Compound	number of THir neurons in either the intact or lesioned SN [1]	neuroprotection against striatal 6-OHDA infusion [2]
O=C([O-])c1nc(=O)[nH]c(=O)[nH]1.[K+] [KO, potassium oxonate]	no significant impact	–
Nc1ncnc2c1ncn2[C@@H]1O[C@H](CO)[C@@H](O)[C@H]1O [adenosine]	–	functional neuroprotection

From US20120128654A1, “Allantoin Administration for the Treatment of Neurodegenerative Disease and Neurotrauma” (UNIVERSITY OF CINCINNATI, priority 2009, published 2012)
